The kinase profiling compilation of Christmann-Franck et al. (2016)

What was measured:
Experiment in all cases: KINOMEscan competition binding
Details in all cases: compound 10.0 µM
[1] = target: PIP5K1C (human) (UniProt O60331)
[2] = target: MKNK2 (human) (UniProt Q9HBH9)
[3] = target: DYRK1B (human) (UniProt Q9Y463)
[4] = target: LTK (human) (UniProt P29376)
[5] = target: BMPR1B (human) (UniProt O00238)
[6] = target: FER (human) (UniProt P16591)
[7] = target: ALK (human) (UniProt Q9UM73)
[8] = target: STK39 (human) (UniProt Q9UEW8)
[9] = target: TLK2 (human) (UniProt Q86UE8)
[10] = target: TNNI3K (human) (UniProt Q59H18)
[11] = target: NEK7 (human) (UniProt Q8TDX7)
[12] = target: CAMK2G (human) (UniProt Q13555)
[13] = target: NEK3 (human) (UniProt P51956)
[14] = target: CHUK (human) (UniProt O15111)
[15] = target: ERBB3 (human) (UniProt P21860)
[16] = target: MTOR (human) (UniProt P42345)
[17] = target: RPS6KA2 KD1 (human) (UniProt Q15349)
[18] = target: PAK3 (human) (UniProt O75914)
[19] = target: RPS6KA6 KD1 (human) (UniProt Q9UK32)
[20] = target: CAMK1G (human) (UniProt Q96NX5)
[21] = target: CDK3 (human) (UniProt Q00526)
[22] = target: ULK2 (human) (UniProt Q8IYT8)
[23] = target: ACVR2B (human) (UniProt Q13705)
[24] = target: DDR1 (human) (UniProt Q08345)
[25] = target: EIF2AK1 (human) (UniProt Q9BQI3)
[26] = target: CSNK1G2 (human) (UniProt P78368)
[27] = target: EPHA6 (human) (UniProt Q9UF33)
[28] = target: SIK3 (human) (UniProt Q9Y2K2)
[29] = target: MAPK3 (human) (UniProt P27361)
[30] = target: SYK (human) (UniProt P43405)
[31] = target: CDC42BPA (human) (UniProt Q5VT25)
[32] = target: PAK4 (human) (UniProt O96013)
[33] = target: MAP2K6 (human) (UniProt P52564)
[34] = target: STK25 (human) (UniProt O00506)
[35] = target: NEK11 (human) (UniProt Q8NG66)
[36] = target: NUAK2 (human) (UniProt Q9H093)
[37] = target: PHKG2 (human) (UniProt P15735)
[38] = target: CDK4 CCND3 (human) (UniProt P11802+P30281)
[39] = target: DMPK (human) (UniProt Q09013)
[40] = target: PRKG2 (human) (UniProt Q13237)

Sequence of TLK2 (human) (Q86UE8 whole entry, looked up): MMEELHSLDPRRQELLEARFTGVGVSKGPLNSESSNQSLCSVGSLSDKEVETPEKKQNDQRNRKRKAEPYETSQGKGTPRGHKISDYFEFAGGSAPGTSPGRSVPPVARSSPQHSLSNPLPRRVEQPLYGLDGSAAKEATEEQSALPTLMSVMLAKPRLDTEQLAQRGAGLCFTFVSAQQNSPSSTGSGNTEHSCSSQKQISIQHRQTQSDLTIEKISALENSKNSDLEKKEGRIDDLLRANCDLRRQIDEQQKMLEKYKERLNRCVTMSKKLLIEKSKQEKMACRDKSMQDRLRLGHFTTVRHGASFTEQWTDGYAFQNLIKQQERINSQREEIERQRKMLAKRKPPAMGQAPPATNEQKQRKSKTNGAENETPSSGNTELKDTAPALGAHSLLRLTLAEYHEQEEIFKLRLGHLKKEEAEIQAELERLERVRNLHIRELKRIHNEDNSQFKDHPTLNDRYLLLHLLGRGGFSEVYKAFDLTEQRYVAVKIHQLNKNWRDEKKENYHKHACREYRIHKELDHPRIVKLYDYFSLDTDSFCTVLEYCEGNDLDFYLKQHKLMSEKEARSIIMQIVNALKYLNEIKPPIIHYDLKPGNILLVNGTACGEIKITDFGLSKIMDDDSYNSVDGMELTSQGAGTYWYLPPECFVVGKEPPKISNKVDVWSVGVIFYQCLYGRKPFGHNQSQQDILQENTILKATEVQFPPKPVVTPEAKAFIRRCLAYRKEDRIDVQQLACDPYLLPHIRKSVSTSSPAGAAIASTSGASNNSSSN
Sequence of NEK11 (human) (Q8NG66 whole entry, looked up): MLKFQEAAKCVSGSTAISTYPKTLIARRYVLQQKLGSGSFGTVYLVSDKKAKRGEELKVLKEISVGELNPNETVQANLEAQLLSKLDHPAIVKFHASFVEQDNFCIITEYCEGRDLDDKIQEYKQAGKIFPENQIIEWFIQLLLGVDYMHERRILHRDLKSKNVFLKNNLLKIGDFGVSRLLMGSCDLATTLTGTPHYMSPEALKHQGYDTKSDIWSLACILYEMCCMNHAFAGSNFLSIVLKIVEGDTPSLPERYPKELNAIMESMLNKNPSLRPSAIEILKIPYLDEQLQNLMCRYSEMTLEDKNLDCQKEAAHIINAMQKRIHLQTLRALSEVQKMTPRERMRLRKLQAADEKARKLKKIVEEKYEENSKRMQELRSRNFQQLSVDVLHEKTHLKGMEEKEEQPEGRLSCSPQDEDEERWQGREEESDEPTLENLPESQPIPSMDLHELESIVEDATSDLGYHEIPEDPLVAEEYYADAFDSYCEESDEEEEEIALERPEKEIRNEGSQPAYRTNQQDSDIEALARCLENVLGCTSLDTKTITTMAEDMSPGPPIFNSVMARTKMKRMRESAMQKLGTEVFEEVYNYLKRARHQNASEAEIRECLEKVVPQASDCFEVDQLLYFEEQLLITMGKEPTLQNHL
Sequence of DYRK1B (human) (Q9Y463 whole entry, looked up): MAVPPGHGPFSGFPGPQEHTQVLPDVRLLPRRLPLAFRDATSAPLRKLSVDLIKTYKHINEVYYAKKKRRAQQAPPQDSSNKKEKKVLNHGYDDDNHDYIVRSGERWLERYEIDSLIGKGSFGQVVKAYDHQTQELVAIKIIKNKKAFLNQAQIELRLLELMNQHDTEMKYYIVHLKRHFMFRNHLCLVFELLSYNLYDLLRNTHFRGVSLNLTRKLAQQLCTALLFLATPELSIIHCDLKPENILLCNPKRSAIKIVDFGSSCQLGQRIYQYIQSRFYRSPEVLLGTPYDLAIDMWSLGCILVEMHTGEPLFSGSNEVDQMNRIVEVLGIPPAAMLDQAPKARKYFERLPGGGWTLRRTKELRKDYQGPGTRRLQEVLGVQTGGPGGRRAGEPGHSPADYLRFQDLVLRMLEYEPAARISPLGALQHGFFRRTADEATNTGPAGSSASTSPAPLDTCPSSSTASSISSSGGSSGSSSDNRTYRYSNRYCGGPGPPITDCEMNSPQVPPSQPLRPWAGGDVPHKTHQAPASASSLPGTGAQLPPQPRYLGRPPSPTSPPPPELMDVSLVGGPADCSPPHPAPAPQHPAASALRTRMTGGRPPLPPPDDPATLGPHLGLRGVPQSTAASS
Sequence of ULK2 (human) (Q8IYT8 whole entry, looked up): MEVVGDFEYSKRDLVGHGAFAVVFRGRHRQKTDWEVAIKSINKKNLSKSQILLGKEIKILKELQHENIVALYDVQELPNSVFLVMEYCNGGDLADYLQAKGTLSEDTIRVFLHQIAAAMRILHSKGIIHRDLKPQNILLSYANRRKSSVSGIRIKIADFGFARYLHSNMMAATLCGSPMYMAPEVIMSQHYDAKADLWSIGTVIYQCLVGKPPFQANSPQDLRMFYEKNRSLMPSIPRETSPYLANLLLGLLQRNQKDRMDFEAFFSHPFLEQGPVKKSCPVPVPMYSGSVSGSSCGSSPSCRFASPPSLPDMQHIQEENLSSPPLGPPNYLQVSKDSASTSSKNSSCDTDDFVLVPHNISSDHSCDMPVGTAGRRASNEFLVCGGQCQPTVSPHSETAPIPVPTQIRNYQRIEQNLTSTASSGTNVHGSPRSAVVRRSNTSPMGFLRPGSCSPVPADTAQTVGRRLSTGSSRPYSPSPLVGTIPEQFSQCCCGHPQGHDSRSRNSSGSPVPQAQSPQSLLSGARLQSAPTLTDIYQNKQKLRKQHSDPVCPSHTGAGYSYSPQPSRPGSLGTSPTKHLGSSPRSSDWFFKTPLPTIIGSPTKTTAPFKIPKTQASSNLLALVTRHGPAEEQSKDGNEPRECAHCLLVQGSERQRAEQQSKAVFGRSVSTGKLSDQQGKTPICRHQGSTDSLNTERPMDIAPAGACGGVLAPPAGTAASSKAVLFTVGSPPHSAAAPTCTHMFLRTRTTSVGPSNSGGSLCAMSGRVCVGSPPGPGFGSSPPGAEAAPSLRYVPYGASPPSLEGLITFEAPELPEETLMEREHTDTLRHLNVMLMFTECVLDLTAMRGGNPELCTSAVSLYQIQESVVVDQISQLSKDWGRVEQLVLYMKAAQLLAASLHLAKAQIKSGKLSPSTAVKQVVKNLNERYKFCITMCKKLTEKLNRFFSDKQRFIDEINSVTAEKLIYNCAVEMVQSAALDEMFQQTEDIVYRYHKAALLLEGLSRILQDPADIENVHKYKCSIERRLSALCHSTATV
Sequence of ALK (human) (Q9UM73 whole entry, looked up): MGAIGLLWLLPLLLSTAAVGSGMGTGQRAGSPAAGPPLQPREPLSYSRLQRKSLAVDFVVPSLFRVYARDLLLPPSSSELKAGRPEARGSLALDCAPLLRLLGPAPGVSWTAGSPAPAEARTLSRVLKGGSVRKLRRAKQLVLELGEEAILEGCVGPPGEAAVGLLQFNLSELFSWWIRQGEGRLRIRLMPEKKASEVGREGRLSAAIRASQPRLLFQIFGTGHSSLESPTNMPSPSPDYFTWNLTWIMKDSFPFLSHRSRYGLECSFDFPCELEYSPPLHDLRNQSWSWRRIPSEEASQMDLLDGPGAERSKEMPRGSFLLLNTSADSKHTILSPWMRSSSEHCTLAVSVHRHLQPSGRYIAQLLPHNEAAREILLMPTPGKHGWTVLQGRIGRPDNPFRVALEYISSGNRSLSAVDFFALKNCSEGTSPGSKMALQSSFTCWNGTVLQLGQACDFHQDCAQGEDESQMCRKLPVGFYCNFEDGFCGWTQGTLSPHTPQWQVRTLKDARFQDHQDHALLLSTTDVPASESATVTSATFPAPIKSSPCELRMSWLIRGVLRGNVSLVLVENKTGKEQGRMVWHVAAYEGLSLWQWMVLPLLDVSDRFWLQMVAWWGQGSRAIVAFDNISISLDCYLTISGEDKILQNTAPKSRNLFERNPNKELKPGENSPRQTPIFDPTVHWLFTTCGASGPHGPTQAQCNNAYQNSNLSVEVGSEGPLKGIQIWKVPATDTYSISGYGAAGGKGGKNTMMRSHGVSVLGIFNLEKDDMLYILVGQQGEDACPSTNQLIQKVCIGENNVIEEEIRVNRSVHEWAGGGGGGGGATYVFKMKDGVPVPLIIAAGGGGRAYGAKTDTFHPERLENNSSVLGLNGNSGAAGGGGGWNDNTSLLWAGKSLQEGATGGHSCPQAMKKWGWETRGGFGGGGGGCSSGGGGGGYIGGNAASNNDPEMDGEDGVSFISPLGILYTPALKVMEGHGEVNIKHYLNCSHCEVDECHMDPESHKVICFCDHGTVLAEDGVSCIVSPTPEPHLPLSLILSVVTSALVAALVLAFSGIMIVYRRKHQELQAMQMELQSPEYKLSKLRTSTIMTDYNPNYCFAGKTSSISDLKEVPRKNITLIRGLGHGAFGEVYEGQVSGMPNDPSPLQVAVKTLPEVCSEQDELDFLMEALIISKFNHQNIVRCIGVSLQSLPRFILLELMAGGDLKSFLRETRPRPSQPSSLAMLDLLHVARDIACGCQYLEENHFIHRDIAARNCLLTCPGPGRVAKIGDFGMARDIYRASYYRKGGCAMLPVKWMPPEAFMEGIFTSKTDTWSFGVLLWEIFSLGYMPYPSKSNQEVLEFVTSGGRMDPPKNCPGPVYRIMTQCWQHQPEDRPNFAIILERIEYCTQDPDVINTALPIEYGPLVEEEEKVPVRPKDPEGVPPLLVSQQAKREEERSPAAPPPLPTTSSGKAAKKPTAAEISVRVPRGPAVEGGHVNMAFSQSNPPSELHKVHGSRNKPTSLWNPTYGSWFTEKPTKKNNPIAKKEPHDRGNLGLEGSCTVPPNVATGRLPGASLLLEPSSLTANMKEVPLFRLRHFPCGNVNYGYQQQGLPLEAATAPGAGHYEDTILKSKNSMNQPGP
Sequence of MAP2K6 (human) (P52564 whole entry, looked up): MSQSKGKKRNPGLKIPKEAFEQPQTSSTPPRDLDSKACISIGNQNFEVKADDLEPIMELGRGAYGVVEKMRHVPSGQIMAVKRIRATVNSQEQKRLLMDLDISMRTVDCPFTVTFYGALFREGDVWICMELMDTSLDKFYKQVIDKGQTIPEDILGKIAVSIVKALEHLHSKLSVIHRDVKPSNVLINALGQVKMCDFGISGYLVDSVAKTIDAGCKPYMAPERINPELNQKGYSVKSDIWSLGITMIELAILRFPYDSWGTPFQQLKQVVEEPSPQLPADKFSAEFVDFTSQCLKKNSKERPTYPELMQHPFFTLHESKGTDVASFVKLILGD

COc1cc2ncnc(Nc3cccc(Cl)c3)c2cc1OC
kinase still bound, per cent of control [1]: 14% | kinase still bound, per cent of control [2]: 3.9% | kinase still bound, per cent of control [3]: 70% | kinase still bound, per cent of control [4]: 48% | kinase still bound, per cent of control [5]: 62% | kinase still bound, per cent of control [6]: 82% | kinase still bound, per cent of control [7]: 25% | kinase still bound, per cent of control [8]: 57% | kinase still bound, per cent of control [9]: 100% | kinase still bound, per cent of control [10]: 38% | kinase still bound, per cent of control [11]: 88% | kinase still bound, per cent of control [12]: 77% | kinase still bound, per cent of control [13]: 78% | kinase still bound, per cent of control [14]: 72% | kinase still bound, per cent of control [15]: 18% | kinase still bound, per cent of control [16]: 83% | kinase still bound, per cent of control [17]: 85% | kinase still bound, per cent of control [18]: 25% | kinase still bound, per cent of control [19]: 46% | kinase still bound, per cent of control [20]: 64% | kinase still bound, per cent of control [21]: 100% | kinase still bound, per cent of control [22]: 87% | kinase still bound, per cent of control [23]: 54% | kinase still bound, per cent of control [24]: 1.9% | kinase still bound, per cent of control [25]: 65% | kinase still bound, per cent of control [26]: 83% | kinase still bound, per cent of control [27]: 11% | kinase still bound, per cent of control [28]: 53% | kinase still bound, per cent of control [29]: 88% | kinase still bound, per cent of control [30]: 54% | kinase still bound, per cent of control [31]: 77% | kinase still bound, per cent of control [32]: 84% | kinase still bound, per cent of control [33]: 95% | kinase still bound, per cent of control [34]: 77% | kinase still bound, per cent of control [35]: 99% | kinase still bound, per cent of control [36]: 49% | kinase still bound, per cent of control [37]: 93% | kinase still bound, per cent of control [38]: 93% | kinase still bound, per cent of control [39]: 79% | kinase still bound, per cent of control [40]: 82%

CCN1CCN(Cc2ccc(NC(=O)c3ccc(C)c(/C=C/c4cnc5[nH]ccc5c4OC)c3)cc2C(F)(F)F)CC1
kinase still bound, per cent of control [1]: 84% | kinase still bound, per cent of control [2]: 2.7% | kinase still bound, per cent of control [3]: 27% | kinase still bound, per cent of control [4]: 62% | kinase still bound, per cent of control [5]: 14% | kinase still bound, per cent of control [6]: 27% | kinase still bound, per cent of control [7]: 51% | kinase still bound, per cent of control [8]: 100% | kinase still bound, per cent of control [9]: 93% | kinase still bound, per cent of control [10]: 1% | kinase still bound, per cent of control [11]: 64% | kinase still bound, per cent of control [12]: 100% | kinase still bound, per cent of control [13]: 77% | kinase still bound, per cent of control [14]: 0% | kinase still bound, per cent of control [15]: 100% | kinase still bound, per cent of control [16]: 100% | kinase still bound, per cent of control [17]: 2.7% | kinase still bound, per cent of control [18]: 6% | kinase still bound, per cent of control [19]: 42% | kinase still bound, per cent of control [20]: 100% | kinase still bound, per cent of control [21]: 100% | kinase still bound, per cent of control [22]: 35% | kinase still bound, per cent of control [23]: 62% | kinase still bound, per cent of control [24]: 0.15% | kinase still bound, per cent of control [25]: 78% | kinase still bound, per cent of control [26]: 39% | kinase still bound, per cent of control [27]: 0% | kinase still bound, per cent of control [28]: 100% | kinase still bound, per cent of control [29]: 100% | kinase still bound, per cent of control [30]: 7.2% | kinase still bound, per cent of control [31]: 15% | kinase still bound, per cent of control [32]: 86% | kinase still bound, per cent of control [33]: 79% | kinase still bound, per cent of control [34]: 100% | kinase still bound, per cent of control [35]: 32% | kinase still bound, per cent of control [36]: 95% | kinase still bound, per cent of control [37]: 100% | kinase still bound, per cent of control [38]: 73% | kinase still bound, per cent of control [39]: 57% | kinase still bound, per cent of control [40]: 91%

COc1cc2c(Nc3ccc(NC(=O)c4ccccc4)cc3)ncnc2cc1OCCCN1CCOCC1
kinase still bound, per cent of control [1]: 69% | kinase still bound, per cent of control [2]: 4.2% | kinase still bound, per cent of control [3]: 96% | kinase still bound, per cent of control [4]: 6.3% | kinase still bound, per cent of control [5]: 26% | kinase still bound, per cent of control [6]: 65% | kinase still bound, per cent of control [7]: 26% | kinase still bound, per cent of control [8]: 100% | kinase still bound, per cent of control [9]: 100% | kinase still bound, per cent of control [10]: 94% | kinase still bound, per cent of control [11]: 100% | kinase still bound, per cent of control [12]: 100% | kinase still bound, per cent of control [13]: 100% | kinase still bound, per cent of control [14]: 100% | kinase still bound, per cent of control [15]: 1% | kinase still bound, per cent of control [16]: 70% | kinase still bound, per cent of control [17]: 84% | kinase still bound, per cent of control [18]: 87% | kinase still bound, per cent of control [19]: 68% | kinase still bound, per cent of control [20]: 66% | kinase still bound, per cent of control [21]: 100% | kinase still bound, per cent of control [22]: 91% | kinase still bound, per cent of control [23]: 100% | kinase still bound, per cent of control [24]: 36% | kinase still bound, per cent of control [25]: 20% | kinase still bound, per cent of control [26]: 100% | kinase still bound, per cent of control [27]: 85% | kinase still bound, per cent of control [28]: 100% | kinase still bound, per cent of control [29]: 100% | kinase still bound, per cent of control [30]: 69% | kinase still bound, per cent of control [31]: 85% | kinase still bound, per cent of control [32]: 100% | kinase still bound, per cent of control [33]: 86% | kinase still bound, per cent of control [34]: 63% | kinase still bound, per cent of control [35]: 100% | kinase still bound, per cent of control [36]: 94% | kinase still bound, per cent of control [37]: 76% | kinase still bound, per cent of control [38]: 100% | kinase still bound, per cent of control [39]: 100% | kinase still bound, per cent of control [40]: 91%
